The source of these data is patent US20200277262A1, “N-(CYANO-SUBSTITUTED BENZYL OR PYRIDINYLMETHYL)-3-HYDROXYPICOLINAMIDE DERIVATIVES” (Takeda Pharmaceutical Company Limited, priority 2017, published 2020).

Assay [1] addresses T1, PHD2 enzyme (residues 181-417) (Homo sapiens, UniProt Q9GZT9).
T1 construct: The IC50 values for the PHD2 enzyme (residues 181-417) were determined
Nature of the assay: Inhibition of PHD2 Enzyme (LC/MS detection of hydroxylated peptide). The class given is biochemical. To be noted: 5 nM enzyme, 1 μM biotin-labeled peptide, 2 μM 2-oxoglutarate, 60 min pre-incubation, pH 7.3; -log(IC50), IC50 molar; read-out: Inhibition of PHD2 (pIC50) (converted). The protocol:
The IC50 values for the PHD2 enzyme (residues 181-417) were determined by mixing increasing amounts of an inhibitor with a fixed amount of enzyme (5 nM, final concentration) and Biotin-labeled peptide (Biotin-Asp-Leu-Glu-Met-Leu-Ala-Pro-Tyr-Ile-Pro-Met-Asp-Asp-Asp-Phe-Gln-Leu, 1 μM final concentration) and 2-oxyglutarate (2 μM final concentration) in 50 mM HEPES, 50 mM KCl, 0.5 mM TCEP, 2 μM FeCl2, 0.1 mg/mL BSA, at pH 7.3. The reaction was conducted by pre-incubating the enzyme in the presence of the inhibitor for 60 minutes at room temperature. The activity of the free enzyme was measured by adding the peptide, the 2-oxoglutarate, and ascorbic acid (1 mM final concentration). The enzymatic activity was quenched after 60 minutes by adding an excess of a tight binding inhibitor to the assay mixture. The amount of product released was measured by using a LC/MS system (Agilent HPLC with Applied Biosystems API3000 Mass Spectrometer). Data were analyzed using the classical isotherm equation for the determination of IC50 values and are reported in Table 1, below, as pIC50, i.e., −log(IC50), where IC50 is molar concentration of the test compound at 50% inhibition.
(§1) Table 1 lists biological data for some of the compounds shown in the examples, where larger pIC50 and pEC50 values represent higher potency or activity, respectively. The IC50 data (reported in Table 1 as pIC50) were obtained using the enzyme-based assay described in the specification under the heading “Inhibition of PHD2 Enzyme.” The EC50 data (reported in Table 1 as pEC50) were obtained using the cell-based assay described in the specification under the heading “Cell-based HIF-α Stabilization Assay.”

The test system of assay [2] is HIF1a protein content in H9c2 rat cardiomyocytes. Nature of the assay: Cell-based HIF-α Stabilization Assay (HIF1a ELISA). The settings on record: H9c2 cells, 24 hours compound incubation, concentration giving 50% of desferrioxamine maximum response, -log(EC50), EC50 molar, read-out: Stabilization of HIF-α (pEC50) (converted). The protocol: H9c2 rat cardiomyocytes (ATCC) were seeded in 96-well tissue culture microplates and cultured for 24 hours prior to addition of compounds (11 point range of serial dilutions) or DMSO vehicle. After 24 hours of compound incubation, whole cell extracts were prepared by lysing cells in cell extraction buffer containing protease and phosphatase inhibitors (Meso-Scale Discovery). HIF1a protein content was assessed by ELISA (Meso-Scale Discovery) and expressed as % relative to the maximum response obtained from the positive control, desferrioxamine (Sigma-Aldrich). EC50 for each compound was obtained by curve-fitting using XLfit4 MicroSoft Excel curve-fitting software to calculate the compound concentration that results in 50% of the desferrioxamine maximum response.
as §1

T1 sequence (Q9GZT9 181-417): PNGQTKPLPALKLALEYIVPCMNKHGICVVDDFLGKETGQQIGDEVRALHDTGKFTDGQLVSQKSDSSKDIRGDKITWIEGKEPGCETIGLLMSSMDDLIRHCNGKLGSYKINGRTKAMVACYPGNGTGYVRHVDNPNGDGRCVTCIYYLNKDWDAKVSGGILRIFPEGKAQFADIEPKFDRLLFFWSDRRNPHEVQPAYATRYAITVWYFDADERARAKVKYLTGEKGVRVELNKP

As for `N#Cc1cnc(C(=O)N[C@@H]2CCc3cc(C#N)ccc32)c(O)c1` [Example 34, (R)-5-cyano-N-(5-cyano-2,3-dihydro-1H-inden-1-yl)-3-hydroxypicolinamide], the IC50 in assay [1] is 39.8 nM. For the same compound, the EC50 in assay [2] was 12600 nM.

As for `Cc1cc(C#N)ccc1CNC(=O)c1ncc(F)cc1O` [Example 35, N-(4-cyano-2-methylbenzyl)-5-fluoro-3-hydroxypicolinamide], the IC50 in assay [1] is 20 nM. Moreover, in assay [2], the EC50 was 25100 nM.

Turning to `Cc1cc(C#N)ccc1CNC(=O)c1ncc(Cl)cc1O` [Example 36, 5-chloro-N-(4-cyano-2-methylbenzyl)-3-hydroxypicolinamide], in assay [1], the IC50 was 39.8 nM. For the same compound, the EC50 in assay [2] was 25100 nM.

`COc1cnc(C(=O)NCc2ccc(C#N)cc2C)c(O)c1` [Example 38, N-(4-cyano-2-methylbenzyl)-3-hydroxy-5-methoxypicolinamide]: the IC50 in assay [1] was 10 nM. Moreover, the EC50 in assay [2] is 7940 nM.

As to `CC(NC(=O)c1ncccc1O)c1ccc(C#N)cc1` (stereo not shown) [Example 39, N-(1-(4-cyanophenyl)ethyl)-3-hydroxypicolinamide], the IC50 in assay [1] is 1580 nM. The EC50 in assay [2] was 50100 nM.

Take `COCCCNc1cnc(C(=O)NCc2c(C)cc(C#N)cc2C)c(O)c1` [Example 40, N-(4-cyano-2,6-dimethylbenzyl)-3-hydroxy-5-((3-methoxypropyl)amino)picolinamide]: the IC50 in assay [1] was 31.6 nM. The EC50 in assay [2] is 2510 nM.

With `CCN1CCN(c2cnc(C(=O)NCc3c(C)cc(C#N)cc3C)c(O)c2)CC1` [Example 41, N-(4-cyano-2,6-dimethylbenzyl)-5-(4-ethylpiperazin-1-yl)-3-hydroxypicolinamide], the IC50 in assay [1] is 79.4 nM. The EC50 in assay [2] was 6310 nM.

On to `Cc1cc(C#N)cc(C)c1CNC(=O)c1ncc(N2CCN(CC(F)F)CC2)cc1O` [Example 42, N-(4-cyano-2,6-dimethylbenzyl)-5-(4-(2,2-difluoroethyl)piperazin-1-yl)-3-hydroxypicolinamide], for which, in assay [1], the IC50 was 39.8 nM. The EC50 in assay [2] is 3980 nM.
